According to patent US8163777B2, “Benzimidazolyl-pyridine compounds for inflammation and immune-related uses” (Synta Pharmaceuticals Corp., priority 2006, dated 2012):

System: IL-2 production
Assay: Inhibition of IL-2 production in PHA-activated Jurkat cells (ELISA)
Format: cell-based
Conditions: Homo sapiens, PHA 2.5 μg/mL, 20 hours, bin given with mixed units 500 nM-1 μM
Protocol: Jurkat cells were placed in a 96 well plate (0.5 million cells per well in 1% FBS medium) then test compounds of this invention were added at different concentrations. After 10 minutes, the cells were activated with PHA (final concentration 2.5 μg/mL) and incubated for 20 hours at 37° C. under CO2. The final volume was 200 μL. Following incubation, the cells were centrifuged and the supernatants collected and stored at −70° C. prior to assaying for IL-2 production. A commercial ELISA kit (IL-2 Eli-pair, Diaclone Research, Besancon, France) was used to detect production of IL-2, from which dose response curves were obtained. The IC50 value was calculated as the concentration at which 50% of maximum IL-2 production after stimulation was inhibited versus a non-stimulation control.

Row | SMILES | IC50 [nM]
1 | O=C(Nc1ccc(-n2c(C(F)(F)F)nc3ccccc32)nc1)c1cc(F)ccc1F [Compound 41, 2,5-Difiuoro-N-[2-(2-trifluoromethyl-benzoimidazol-1-yl)-pyrid-5-yl]-benzamide] | 500 to 1000
2 | Cc1cc2nc(C(F)(F)F)n(-c3ccc(NC(=O)c4cccc(F)c4F)cc3)c2cc1C [Compound 42, 2,3-Difluoro-N-[4-(2-trifluoromethyl-5,6-dimethyl-benzoimidazol-1-yl)-phenyl]-benzamide] | 500 to 1000
3 | Nc1ccc(C(=O)Nc2ccc(-n3c(C(F)(F)F)nc4ccccc43)cc2)c(F)c1F [Compound 43, 2,3-Difluoro-4-amino-N-[4-(2-trifluoromethyl-benzoimidazol-1-yl)-phenyl]-benzamide] | 500 to 1000
4 | O=C(Nc1ccc(-n2c(C(F)(F)F)nc3cccnc32)cc1)c1cccc(F)c1F [Compound 44, 2,3-Difluoro-N-[4-(2-trifiuoromethyl-imidazo[4,5-b]pyrid-3-yl)-phenyl]-benzamide] | 500 to 1000
5 | O=C(Nc1ccc(-n2c(C(F)(F)F)nc3ccccc32)cc1)c1cccnc1 [Compound 45, N-[4-(2-trifiuoromethyl-benzoimidazol-1-yl)-phenyl]-nicotinamide] | 500 to 1000
6 | O=C(Nc1cccc(F)c1F)c1ccc(-n2c(C(F)(F)F)nc3ccccc32)cc1 [Compound 46, N-(2,3-difluorophenyl)-4-(2-trifluoromethyl-benzoimidazol-1-yl)-benzamide] | 500 to 1000
7 | N#C/C(=C\c1ccc(-n2c(C(F)(F)F)nc3ccccc32)cc1)c1cccc(F)c1F [Compound 47, 1-(2,3-difluoro-phenyl)-3-[4-(2-trifluoromethyl-benzoimidazol-1-yl)-phenyl]-acrylonitrile] | 500 to 1000
8 | N#C/C(=C\c1ccc(-n2c(C(F)(F)F)nc3ccccc32)cc1)c1cc(F)ccc1F [Compound 48, 1-(2,5-difluoro-phenyl)-3-[4-(2-trifluoromethyl-benzoimidazol-1-yl)-phenyl]-acrylonitrile] | 500 to 1000
9 | O=C(Nc1ccc(-n2c(C(F)(F)F)nc3cccnc32)cc1)c1cc(F)ccc1F [Compound 56, 2,5-Difluoro-N-[4-(2-trifluoromethyl-imidazo[4,5-b]pyrid-3-yl)-phenyl]-benzamide] | 500 to 1000
10 | COc1ccc2c(c1)nc(C(F)(F)F)n2-c1ccc(NC(=O)c2cccc(C(F)(F)F)c2)cc1 [Compound 91, 3-Trifluoromethyl-N-[4-(2-trifluoromethyl-5-methoxy-benzoimidazol-1-yl)-phenyl]-benzamide] | 500 to 1000
11 | COc1ccc(CC(=O)Nc2ccc(-n3c(C(F)(F)F)nc4cc(OC)ccc43)cc2)cc1 [Compound 92, 2-(4-Methoxy-phenyl)-N-[4-(2-trifluoromethyl-5-methoxy-benzoimidazol-1-yl)-phenyl]-acetamide] | 500 to 1000
12 | CC(=O)Nc1ccc2nc(C(F)(F)F)n(-c3ccc(NC(=O)c4cccc(F)c4F)cc3)c2c1 [Compound 93, 2,3-Difluoro-N-[4-(2-trifluoromethyl-6-acetylamino-benzoimidazol-1-yl)-phenyl]-benzamide] | 500 to 1000
13 | COc1ccc2c(c1)nc(C(F)(F)F)n2-c1ccc(NC(=O)Cc2cccs2)cc1 [Compound 94, 2-(Thien-2-yl)-N-[4-(2-trifluoromethyl-5-methoxy-benzoimidazol-1-yl)-phenyl]-acetamide] | 500 to 1000
14 | COc1ccc2c(c1)nc(C(F)(F)F)n2-c1ccc(NC(=O)Cc2ccccc2)cc1 [Compound 95, 2-phenyl-N-[4-(2-trifluoromethyl-5-methoxy-benzoimidazol-1-yl)-phenyl]-acetamide] | 500 to 1000
15 | COc1ccc2c(c1)nc(C(F)(F)F)n2-c1ccc(NC(=O)C2CCC2)nc1 [Compound 169, Cyclobutanecarboxylic acid [5-(5-methox-2-trifluoromethyl-benzoimidazol-1-yl)-pyridin-2-yl]-amide] | 500 to 1000
16 | COc1ccc2c(c1)nc(C(F)(F)F)n2-c1ccc(NC(=O)c2ccc(Cl)cc2)nc1 [Compound 171, 4-Chloro-N-[5-(5-methoxy-2-trifluoromethyl-benzoimidazol-1-yl)-pyridin-2-yl]-benzamide] | 500 to 1000
17 | COc1ccc2c(c1)nc(C(F)(F)F)n2-c1ccc(NC(=O)c2ccc(I)cc2)nc1 [Compound 182, 4-Iodo-N-[5-(5-methoxy-2-trifluoromethyl-benzoimidazol-1-yl)-pyridin-2-yl]-benzamide] | 500 to 1000

Same assay, conditions: Homo sapiens, PHA 2.5 μg/mL, 20 hours, binned values

Row | SMILES | IC50 [nM]
18 | O=C(Nc1ccc(-n2c(C(F)(F)F)nc3ccccc32)c(Cl)c1)c1cccc(F)c1F [Compound 25, 2,3-Difluoro-N-[2-.chloro-4-(2-trifluoromethyl-benzoimidazol-1-yl)-phenyl]-benzamide] | 100 to 500
19 | Cc1nc2ccccc2n1-c1ccc(NC(=O)c2cccc(F)c2F)cc1 [Compound 59, 2,3-Difluoro-N-[4-(2-methyl-benzoimidazol-1-yl)-phenyl]-benzamide] | > 1000
20 | COc1ccc2c(c1)nc(C(F)(F)F)n2-c1ccc(NC(=O)c2cc([N+](=O)[O-])cc([N+](=O)[O-])c2)cc1 [Compound 81, 3,5-Dinitro-N-[4-(2-trifluoromethyl-5-methoxy-benzoimidazol-1-yl)-phenyl]-benzamide] | 100 to 500
21 | CCNc1ccc(-n2c(C(F)(F)F)nc3cc(OC)ccc32)nc1 [Compound 162, Ethyl-[6-(5-methoxy-2-trifluoromethyl-benzoimidazol-1-yl)-pyridin-3-yl]-amine] | > 1000
22 | COc1ccc2c(c1)nc(C(F)(F)F)n2-c1ccc(NC(=O)c2c(F)cccc2F)nc1 [Compound 163, 2,6-difluoro-N-(5-(5-methoxy-2-(trifluoromethyl)-1H-benzo[d]imidazol-1-yl)pyridin-2-yl)benzamide] | < 100
23 | COc1ccc2c(c1)nc(C(F)(F)F)n2-c1ccc(NC(C)=O)nc1 [Compound 164, N-[5-(5-Methoxy-2-trifluoromethyl-benzoimidazol-1-yl)-pyridin-2-yl]-acetamide] | > 1000
24 | CCCCNc1ccc(-n2c(C(F)(F)F)nc3cc(OC)ccc32)cn1 [Compound 165, Butyl[5-(5-methoxy-2-trifluoromethyl-benzoimidazol-1-yl)-pyridin-2-yl]-amine] | 100 to 500
25 | COc1ccc2c(c1)nc(C(F)(F)F)n2-c1ccc(NC(=O)c2ccc(C#N)cc2)nc1 [Compound 166, 4-Cyano-N-[5-(5-methoxy-2-trifluoromethyl-benzoimidazol-1-yl)-pyridin-2-yl]-benzamide] | 100 to 500
26 | CCCC(=O)Nc1ccc(-n2c(C(F)(F)F)nc3cc(OC)ccc32)cn1 [Compound 167, N-[5-(5-Methoxy-2-trifluoromethyl-benzoimidazol-1-yl)-pyridin-2-yl]-butyramide] | 100 to 500
27 | CCC(C)C(=O)Nc1ccc(-n2c(C(F)(F)F)nc3cc(OC)ccc32)cn1 (centres unmarked) [Compound 168, N-[5-(5-Methoxy-2-trifluoromethyl-benzoimidazol-1-yl)-pyridin-2-yl]-2-methyl-butyramide] | 100 to 500
28 | COc1ccc2c(c1)nc(C(F)(F)F)n2-c1ccc(NC(=O)c2ccc(F)cc2)nc1 [Compound 170, 4-Fluoro-N-[5-(5-methoxy-2-trifluoromethyl-benzoimidazol-1-yl)-pyridin-2-yl]-benzamide] | 100 to 500
29 | COc1ccc2c(c1)nc(C(F)(F)F)n2-c1ccc(NC(=O)C2CC2)nc1 [Compound 172, Cyclopropanecarboxylic acid [5-(5-methoxy-2-trifluoromethyl-benzoimidazol-1-yl)-pyridin-2-yl]-amide] | > 1000
30 | COc1ccc2c(c1)nc(C(F)(F)F)n2-c1ccc(NC(=O)c2c(F)cccc2Cl)nc1 [Compound 173, 2-Chloro-6-fluoro-N-[5-(5-methoxy-2-trifluoromethyl-benzoimidazol-1-yl)-pyridin-2-yl]-benzamide] | < 100
31 | COc1ccc2c(c1)nc(C(F)(F)F)n2-c1ccc(NC(=O)c2cccc(Cl)c2Cl)nc1 [Compound 174, 2,3-Dichloro-N-[5-(5-methoxy-2-trifluoromethyl-benzoimidazol-1-yl)-pyridin-2-yl]-benzamide] | < 100
32 | COc1ccc2c(c1)nc(C(F)(F)F)n2-c1ccc(NC(=O)c2ccc(F)cc2F)nc1 [Compound 175] | < 100
33 | COc1ccc2c(c1)nc(C(F)(F)F)n2-c1ccc(NC(=O)c2ccc(Cl)cc2Cl)nc1 [Compound 176, 2,4-Dichloro-N-[5-(5-methoxy-2-trifluoromethyl-benzoimidazol-1-yl)-pyridin-2-yl]-benzamide] | < 100
34 | COc1ccc2c(c1)nc(C(F)(F)F)n2-c1ccc(NC(=O)c2ccc(Cl)cc2F)nc1 [Compound 177, 4-Chloro-2-fluoro-N-[5-(5-methoxy-2-trifluoromethyl-benzoimidazol-1-yl)-pyridin-2-yl]-benzamide] | 100 to 500
35 | COc1ccc2c(c1)nc(C(F)(F)F)n2-c1ccc(NC(=O)c2ccccc2Cl)nc1 [Compound 178, 2-Chloro-N-[5-(5-methoxy-2-trifluoromethyl-benzoimidazol-1-yl)-pyridin-2-yl]-benzamide] | < 100
36 | COc1ccc2c(c1)nc(C(F)(F)F)n2-c1ccc(NC(=O)c2cccc(Cl)c2)nc1 [Compound 179, 3-Chloro-N-[5-(5-methoxy-2-trifluoromethyl-benzoimidazol-1-yl)-pyridin-2-yl]-benzamide] | 100 to 500
37 | COc1ccc2c(c1)nc(C(F)(F)F)n2-c1ccc(NC(=O)c2ccccc2Br)nc1 [Compound 180, 2-Bromo-N-[5-(5-methoxy-2-trifluoromethyl-benzoimidazol-1-yl)-pyridin-2-yl]-benzamide] | < 100
38 | COc1ccc2c(c1)nc(C(F)(F)F)n2-c1ccc(NC(=O)c2cccc(I)c2)nc1 [Compound 181, 3-Iodo-N-[5-(5-methoxy-2-trifluoromethyl-benzoimidazol-1-yl)-pyridin-2-yl]-benzamide] | > 1000
